The values below are quoted from earlier work in patent publication US9301957B2, “Immediate release 4-methyl-3-4[[4-(3-pyridinyl)-2-pyrimidinyl]amino]-N-[5-(4-methyl-1H-imidazol-1-YL)-3-(trifluoromethyl)phenyl] benzamide formulation” (Novartis AG, priority 2011, dated 2016).

For data set [1] the following is noted: nilotinib and its salts.
The conditions of data set [2]: unit dosage given shortly after food, compared to a fasted state.

The structures appear in SMILES notation.

With `Cc1cn(-c2cc(NC(=O)c3ccc(C)c(Nc4nccc(-c5cccnc5)n4)c3)cc(C(F)(F)F)c2)cn1` [nilotinib, 4-Methyl-3-[[4-(3-pyridinyl)-2-pyrimidinyl]amino]-N-[5-(4-methyl-1H-imidazol-1-yl)-3-(trifluoromethyl)phenyl]benzamide], the water solubility entry in data set [1] is recorded as “poorly water soluble”. In addition, the “systemic exposure, as reflected by AUC and Cmax” value in data set [2] is “increases markedly”.
